How the values were obtained:
[1] = Rat skin flux enhancement, side by side diffusion cell; type: in vitro ADME; details: for Skin flux enhancement by 3% PerRx (in words): 3% PerRx vs control at pH 7.4; for Skin flux, control: control formulation without PerRx; for Skin flux, control / Flux enhancement (S.F. Control + 3% PerRx)/(S.F. control) / Skin flux, control + 3% PerRx: hairless rat skin; for Skin flux, control / Skin flux, control + 3% PerRx: donor suspension pH 7.4, 37° C.; for Flux enhancement (S.F. Control + 3% PerRx)/(S.F. control): ratio of skin flux with 3% PerRx to control, pH 7.4; for Skin flux, control + 3% PerRx: with 3% PerRx enhancer
Protocol: […] The dorsal skin from a rat was excised and mounted on a side by side diffusion cell assembly with a contact area of 0.95 cm^2 and cell volume of 2.5 ml. The temperature of the diffusion cell was regulated at 37° C. The excised rat skin was clamped between the donor cell and the receiver with the dorsal stratum corneum facing the donor cell.
The model drug molecules were suspended in physiological phosphate buffer solution, of pH 7.4. The sampling volume of 1.0 ml was removed at the time point and the sampling volume was replaced with a fresh volume of the buffer solution. Skin flux of the drugs was measured in the absence or presence of the enhancer N,N-dimethylamino isobutyric acid propylene glycol mono laureate (also known as dodecanoic acid 2-(3-dimethylamethyl-propionyloxy)-propylester, or PerRx™).

[2] = Aqueous solubility with addition of 3% PerRx; type: physicochemical; details: 3% PerRx added to control formulation
Description: So in the present work, it is believed that at pH 7.4 addition of the acetic acid functional group into polar head position will affect tremendously the physical chemical properties of molecules. […] See the results table.

Compound | Skin flux enhancement by 3% PerRx (in words) [1] | Skin flux, control [1] | Flux enhancement (S.F. Control + 3% PerRx)/(S.F. control) [1] | Skin flux, control + 3% PerRx [1] | Effect of addition of 3% PerRx on aqueous solubility [2]
COc1ccc2c(c1)c(CC(=O)O)c(C)n2C(=O)c1ccc(Cl)cc1 [INDOM, indomethacin] | enhanced most | 0.5 μg/cm^2-hr | 14X | 7.0 μg/cm^2-hr | –
O=[N+]([O-])O[C@H]1CO[C@H]2[C@@H]1OC[C@H]2O[N+](=O)[O-] [ISDN, Isosorbide di nitrate] | – | 20 μg/cm^2-hr | 2X | 40 μg/cm^2-hr | –
O=[N+]([O-])O[C@@H]1CO[C@H]2[C@@H]1OC[C@@H]2O [ISMN, Isosorbide mono nitrate] | enhanced most | 40 μg/cm^2-hr | 18 X | 700 μg/cm^2-hr | does not affect the aqueous solubility
